Earlier results in paper PMC3880013, “Toward an Understanding of Agonist Binding to Human Orexin-1 and Orexin-2 Receptors with G-Protein-Coupled Receptor Modeling and Site-Directed Mutagenesis” (Biochemistry, 2013).
Where two headings read alike, the source gives them in different places. Marks after values point to notes of the source that are not given here. Where no end group is shown, it is not given here.

Experiments:
hOX2 F346A = system: hOX2 F346A; parameters: method as in earlier work; details: hOX2 F346A (7.35) relative to wild type, [Ca2+]i response, ref 37 Malherbe et al., cited from earlier work
hOX2 Q134A = system: hOX2 Q134A; parameters: method as in earlier work; details: hOX2 Q134A (3.32) relative to wild type; [Ca2+]i response; ref 37 Malherbe et al.; cited from earlier work
hOX2 D211A = system: hOX2 D211A; parameters: method as in earlier work; details: hOX2 D211A (45.51) relative to wild type, [Ca2+]i response, ref 37 Malherbe et al., cited from earlier work
hOX2 H350A = details: cited from earlier work; for ratio EC50(mut)/EC50(WT): hOX2 H350A (7.39) relative to wild type, [Ca2+]i response, ref 37 Malherbe et al.
Text: We observed that in OX1, H^7.39 interacts with residues L16 and L20 of helix 1 of OxA (see Figure 6A). […] On the other hand, in OX2, H^7.39 interacts with L20 and not with L16 (see Figure 6B), and ...

hOX2 Y317A = details: cited from earlier work; for ratio EC50(mut)/EC50(WT): hOX2 Y317A (6.48) relative to wild type, [Ca2+]i response, ref 37 Malherbe et al.
Text: D211^45.51 is in the proximity of L19. L19 and L20 form hydrophobic interactions with W214^45.54 and H350^7.39, respectively. […] In the case of OX2, Y223^5.38 forms an interaction with H26 of OxA. F227^5.42 forms a ...

hOX2 Y223A = system: hOX2 Y223A; parameters: method as in earlier work; details: hOX2 Y223A (5.38) relative to wild type, [Ca2+]i response, ref 37 Malherbe et al., cited from earlier work
hOX2 T111A = system: hOX2 T111A; parameters: method as in earlier work; details: hOX2 T111A (2.61) relative to wild type, [Ca2+]i response, ref 37 Malherbe et al., cited from earlier work
hOX2 F227A = details: cited from earlier work; for ratio EC50(mut)/EC50(WT): hOX2 F227A (5.42) relative to wild type, [Ca2+]i response, ref 37 Malherbe et al.
Text: (§1) In the case of OX1, F^5.42 interacts with H26 of OxA that, based on the SDM experiments, has an only moderate impact on potency (see Figure 6A). This is in contrast to OX2 in which F^5.42 interacts with key residue I30 (see Figure 6B). Mutation of I30 of OxA to alanine complet ...

hOX1 F219A = hOX1 F219A (5.42) relative to wild type, [Ca2+]i response, ref 37 Malherbe et al., cited from earlier work
Text: as §1, with “Other mutations had no major effect on efficacy. || We also explored the role of the conserved F^5.42. […] In” for “In”

hOX2 Y354A = hOX2 Y354A (7.43) relative to wild type; [Ca2+]i response; ref 37 Malherbe et al.; cited from earlier work
Text: (§2) Table 1 Comparison of the Effects of Different Mutations in hOX1 and hOX2 on the Binding Potencies of Orexin-A and Orexin-B ^a | column: hOX2 / ratio ^b of Orexin-A

hOX2 T135A = hOX2 T135A (3.33) relative to wild type; [Ca2+]i response; ref 37 Malherbe et al.; cited from earlier work
Text: as §2

hOX1 V130A = hOX1 V130A (3.36) relative to wild type, [Ca2+]i response, ref 37 Malherbe et al., cited from earlier work
hOX1 H344A = details: cited from earlier work; for ratio EC50(mut)/EC50(WT): hOX1 H344A (7.39) relative to wild type, [Ca2+]i response, ref 37 Malherbe et al.
Text: Other mutations had no major effect on efficacy. || An additional residue that plays a key role in OX receptor agonist binding and activation by Orexin peptides is H^7.39. […] We observed that in OX1, H^7.39 interacts with residues L16 and L20 of helix 1 of OxA (see Figure 6A). […] On the other hand, in OX2, H^7.39 interacts with L20 and not with L16 (see Figure 6B), and ...

hOX1 Y311A = details: cited from earlier work
Text: (§3) Other mutations had no major effect on efficacy.

hOX1 Y215A = hOX1 Y215A (5.38) relative to wild type, [Ca2+]i response, ref 37 Malherbe et al., cited from earlier work
Text: as §3

hOX1 W206A = details: cited from earlier work; for ratio EC50(mut)/EC50(WT): hOX1 W206A (45.54) relative to wild type, [Ca2+]i response, ref 37 Malherbe et al.
Text: as §3

hOX1 Y224A = hOX1 Y224A (5.47) relative to wild type, [Ca2+]i response, ref 37 Malherbe et al., cited from earlier work
Text: as §3

hOX1 D203A = hOX1 D203A (45.51) relative to wild type, [Ca2+]i response, ref 37 Malherbe et al., cited from earlier work
Text: as §3

For “Orexin-A (QPLPDCCRQKTCSCRLYELLHGAGNHAAGILTL; ends and bridges not checked; cysteine pairing not given here; UniProt O43612 34-66, looked up) [hypothalamic neuropeptide, 33 amino acids, two intramolecular disulfide bonds C6-C12 and C7-C14; natural OX1/OX2 agonist]”, the “ratio EC50(mut)/EC50(WT)” value (hOX2 F346A) is given as 54.5 ^c fold, the “ratio EC50(mut)/EC50(WT)” value (hOX2 F346A; listed as OxA) is given as 54.5 fold and the “ratio EC50(mut)/EC50(WT)” value (hOX2 Q134A) is given as 22.3 fold. For the same substance, the “ratio EC50(mut)/EC50(WT)” value (hOX2 D211A) was 416.1 ^c fold, the “ratio EC50(mut)/EC50(WT)” value (hOX2 D211A; listed as OxA) was 416.1 fold and the “decrease in Emax” value (hOX2 H350A; OX2 H7.39 (H350) mutated to alanine) was 63.0%. For the same substance, the “ratio EC50(mut)/EC50(WT)” value (hOX2 H350A) was 49.5 ^c fold, the “ratio EC50(mut)/EC50(WT)” value (hOX2 H350A; listed as OxA) was 49.5 fold and the “ratio EC50(mut)/EC50(WT)” value (hOX2 Y317A) was 17.7 ^c fold. The “ratio EC50(mut)/EC50(WT)” value (hOX2 Y317A; listed as OxA) was 17.7 fold, the “relative Emax (decreases to)” value (hOX2 Y317A; hOX2 Y317A compared with WT) was 49.6% and the “ratio EC50(mut)/EC50(WT)” value (hOX2 Y223A) was 183.9 ^c fold. The “ratio EC50(mut)/EC50(WT)” value (hOX2 Y223A; listed as OxA) was 183.9 fold, the “ratio EC50(mut)/EC50(WT)” value (hOX2 T111A) was 243.5 ^c fold and the “ratio EC50(mut)/EC50(WT)” value (hOX2 T111A; listed as OxA) was 243.5 fold. For the same substance, the “efficacy (reduced to)” value (hOX2 F227A; hOX2 F5.42 (F227) mutated to alanine) was 64.3%, the “ratio EC50(mut)/EC50(WT)” value (hOX2 F227A) was 240.3 ^c fold and the “ratio EC50(mut)/EC50(WT)” value (hOX2 F227A; listed as OxA) was 240.3 fold. For the same substance, the “ratio EC50(mut)/EC50(WT)” value (hOX1 F219A) was 139.6 ^c fold, the “ratio EC50(mut)/EC50(WT)” value (hOX1 F219A; listed as OxA) was 139.6 fold and the “ratio EC50(mut)/EC50(WT)” value (hOX2 Y354A) was 3.7 ^c fold. The “ratio EC50(mut)/EC50(WT)” value (hOX2 T135A) was 0.8 ^c fold, the “ratio EC50(mut)/EC50(WT)” value (hOX1 V130A) was 30.6 ^c fold and the “ratio EC50(mut)/EC50(WT)” value (hOX1 V130A; listed as OxA) was 30.6 fold. For the same substance, the “decrease in Emax” value (hOX1 H344A; OX1 H7.39 (H344) mutated to alanine) was 64.5%, the “ratio EC50(mut)/EC50(WT)” value (hOX1 H344A) was 241.1 ^c fold and the “ratio EC50(mut)/EC50(WT)” value (hOX1 H344A; listed as OxA) was 241.1 fold. For the same substance, the “ratio EC50(mut)/EC50(WT)” value (hOX1 Y311A; hOX1 Y311A (6.48) relative to wild type, [Ca2+]i response, ref 37 Malherbe et al.) was 163.9 fold, the “decrease in the maximal efficacy (Emax)” value (hOX1 Y311A; hOX1 Y311A compared with WT) was 53.4% and the “ratio EC50(mut)/EC50(WT)” value (hOX1 Y215A) was 407.8 ^c fold. For the same substance, the “ratio EC50(mut)/EC50(WT)” value (hOX1 Y215A; listed as OxA) was 407.8 fold, the “ratio EC50(mut)/EC50(WT)” value (hOX1 W206A) was 417.8 ^c fold and the “ratio EC50(mut)/EC50(WT)” value (hOX1 W206A; listed as OxA) was 417.8 fold. The “decrease in the maximal efficacy (Emax)” value (hOX1 W206A; hOX1 W206A compared with WT) was 45.0%, the “ratio EC50(mut)/EC50(WT)” value (hOX1 Y224A) was 84.4 ^c fold and the “ratio EC50(mut)/EC50(WT)” value (hOX1 Y224A; listed as OxA) was 84.4 fold. For the same substance, the “ratio EC50(mut)/EC50(WT)” value (hOX1 D203A) was 408.2 ^c fold and the “ratio EC50(mut)/EC50(WT)” value (hOX1 D203A; listed as OxA) was 408.2 fold.
